Values joined by “and” are separate entries in the source; they are usually repeats but may differ in a detail not shown here. Equal entries are not always repeated.
Experiments:
Format in all cases: cell-based, human
DPH1 gene [1] = test: PM resistant colony count after DPH1 gene editing (PAC cassette integration); conditions: for # of PM resistant colonies (40,000 seeded cells): MCF7, individual samples A-D; for # of PM resistant colonies (mean of the samples) / # of PM resistant colonies: TF eff. = 38%; for # of PM resistant colonies: DPH1 assay (integr. vs. k.o.), individual samples; for # of PM resistant colonies (80,000 seeded cells): DPH1 assay editing entities, MCF-7, individual replicates, TF eff. = 33%
Experimental: MCF7 cells (Brooks, et al. 1973) were originally obtained from ATCC (subsequently propagated in an in-house cell bank) and maintained in RPMI […] medium supplemented with 10% FCS, 2 mM L-Glutamine and penicillin/streptomycin at 37° C. and 85% humidity. For transfection of plasmids harboring gene-editing modules, 3,000,000 cells were seeded in a 10 cm diameter culture dish and cultivated at 37° C. and humidified 5% CO2. 24 h after seeding, cells were transfected with 20 μg total DNA using JetPEI (Polyplus) according to the manufacturer's protocol but with an N/P ratio of 6:1. Transfection efficiency was determined after 24 h by flow cytometry (FACS Calibur, BD biosciences) of cells that were transfected with a modified eGFP expression plasmid (Zhang, et al. 1996).
Plasmids encoding CRISPR/Cas9 gene-editing entities (i.e. knock-out and integration systems) against Dph1 (gRNA target sequence: […] (SEQ ID NO: 01) derived from RefSeq: NM_001383) and Dph2 (gRNA target sequence: […] (SEQ ID NO: 02) derived from RefSeq: NM_001039589, NM_001384), and scrambled control (gRNA sequence: […] (SEQ ID NO: 03)) were obtained from OriGene. This system comprises one plasmid expressing a ˜100 nt gRNA under control of a U6 promoter as well as Cas9 nuclease under control of a CMV promoter and a Donor plasmid with a promoter-less GFP/PM expression cassette flanked by homologous arms to the target gene (Dph1 or Dph2). Additional Dph1 gRNA sequence variants of different sizes (OriGene) […]
MCF7 cells which have all chromosomal copies of DPH1 or DPH2 inactivated are resistant to diphtheria toxin (Stahl, et al. 2015). Thus, occurrence and frequency of toxin resistant cells/colonies upon CRISPR/Cas inflicted gene inactivation provides a measure for efficiency of inactivation of all gene copies. Therefore, MCF/cells were transfected as described in Example 1 with (i) a GFP expression plasmid as transfection control, (ii) the CRISPR/Cas9 Dph1 or Dph2 knock-out/integration system and (iii) knock-out/integration entities containing a scrambled gRNA to determine Cas9 independent integration frequencies. After determination of transfection efficiency, cells were seeded in 6-well plates. […] RPMI medium was exchanged by RPMI medium containing DT or PM or both toxins 3 days after cell seeding. Exchange of medium was repeated every 2-3 days until all dead cells were removed from the plates and actively growing colonies could be detected via microscopic inspection. Thereafter (between day 12 and day 14 after start of toxin exposure), cells were washed 3 times with PBS and subsequently stained with ice cold methylene blue (0.2% in 50% EtOH). Methylene blue solution was subsequently removed and the plates were carefully washed under running water. Finally, cell colonies were counted under the microscope with a 5 mm grid foil.
CRISPR/Cas module for targeted integration contains a puromycin (PM) resistance gene expression cassette without promoter to avoid transient expression. Thus, detection of integration of recombinant sequences into the genome was detected by determining sensitivity of cells towards PM. A concentration of […] PM (which quantitatively eliminates wildtype MCF7 cells) was applied to select MCF7 cells with stably integrated expression cassettes. PM-resistant colonies selected with the same procedure as described above for the DT selection and visualized and quantified (between 12 and 14 days after start of selection) in the same manner as described above for toxin resistant colonies. Number of PM resistant colonies obtained with non-target guide sequences (scrambled gRNA, FIG. 1) reflect the nonspecific integration background. Increase in colonies (above nonspecific background) obtained with target-gene gRNAs which are PM-resistant but toxin sensitive reflect integration into just one target allele, leaving the other dph1 or dph2 allele unaffected. […]

DPH1 gene [2] = test: DT resistant colony count after DPH1 gene editing (homozygous gene inactivation); conditions: for # of DT resistant colonies (mean of the samples) / # of DT resistant colonies: TF eff. = 38%; for # of DT resistant colonies: DPH1 assay (integr. vs. k.o.), individual samples; for # of DT resistant colonies (40,000 seeded cells): DPH1 assay editing entities, MCF-7, individual replicates, TF eff. = 33%
DPH1 gene [3] = test: DT + PM double resistant colony count after DPH1 gene editing (integration with inactivation); conditions: for # of DT + PM resistant colonies (40,000 seeded cells) / # of DT + PM resistant colonies (40,000 seeded cells) (unheaded second sub-column: mean): DPH1 (gRNA length), TF eff. = 31%; for # of DT + PM resistant colonies (40,000 seeded cells) / # of PM + DT resistant colonies (40,000 seeded cells): MCF7, individual samples A-D; for # of PM + DT resistant colonies (40,000 seeded cells) / # of PM + DT resistant colonies (40,000 seeded cells) (unheaded second sub-column: mean): DPH1 assay (integr. vs. (integr. + k.o.)), TF eff. = 67*%; for # of DT + PM resistant colonies (80,000 seeded cells): DPH1 assay editing entities, MCF-7, individual replicates, TF eff. = 33%
Experimental: MCF7 cells (Brooks, et al. 1973) were originally obtained from ATCC (subsequently propagated in an in-house cell bank) and maintained in RPMI 1641 medium supplemented with 10% FCS, 2 mM L-Glutamine and penicillin/streptomycin at 37° C. and 85% humidity. For transfection of plasmids harboring gene-editing modules, 3,000,000 cells were seeded in a 10 cm diameter culture dish and cultivated at 37° C. and humidified 5% CO2. 24 h after seeding, cells were transfected with 20 μg total DNA using JetPEI (Polyplus) according to the manufacturer's protocol but with an N/P ratio of 6:1. Transfection efficiency was determined after 24 h by flow cytometry (FACS Calibur, BD biosciences) of cells that were transfected with a modified eGFP expression plasmid (Zhang, et al. 1996).
MCF7 cells which have all chromosomal copies of DPH1 or DPH2 inactivated are resistant to diphtheria toxin (Stahl, et al. 2015). Thus, occurrence and frequency of toxin resistant cells/colonies upon CRISPR/Cas inflicted gene inactivation provides a measure for efficiency of inactivation of all gene copies. Therefore, MCF/cells were transfected as described in Example 1 with (i) a GFP expression plasmid as transfection control, (ii) the CRISPR/Cas9 Dph1 or Dph2 knock-out/integration system and (iii) knock-out/integration entities containing a scrambled gRNA to determine Cas9 independent integration frequencies. After determination of transfection efficiency, cells were seeded in 6-well plates. For quantification of homozygous knock-out events by DT 20000 cells were seeded and for quantification of integration events by PM or both events 40000 cells were seeded. RPMI medium was exchanged by RPMI medium containing DT or PM or both toxins 3 days after cell seeding. Exchange of medium was repeated every 2-3 days until all dead cells were removed from the plates and actively growing colonies could be detected via microscopic inspection. Thereafter (between day 12 and day 14 after start of toxin exposure), cells were washed 3 times with PBS and subsequently stained with ice cold methylene blue (0.2% in 50% EtOH). Methylene blue solution was subsequently removed and the plates were carefully washed under running water. Finally, cell colonies were counted under the microscope with a 5 mm grid foil.
CRISPR/Cas module for targeted integration contains a puromycin (PM) resistance gene expression cassette without promoter to avoid transient expression. Thus, detection of integration of recombinant sequences into the genome was detected by determining sensitivity of cells towards PM. A concentration of 500 ng/μL PM (which quantitatively eliminates wildtype MCF7 cells) was applied to select MCF7 cells with stably integrated expression cassettes. PM-resistant colonies selected with the same procedure as described above for the DT selection and visualized and quantified (between 12 and 14 days after start of selection) in the same manner as described above for toxin resistant colonies. Number of PM resistant colonies obtained with non-target guide sequences (scrambled gRNA, FIG. 1) reflect the nonspecific integration background. Increase in colonies (above nonspecific background) obtained with target-gene gRNAs which are PM-resistant but toxin sensitive reflect integration into just one target allele, leaving the other dph1 or dph2 allele unaffected. PM resistant colonies that are also DT resistant have the expression cassette integrated into at least target allele and the other allele either inactivated or inactivated accompanied by yet another integration event.

[4] = DPH1 (gRNA length), TF eff. = 31%
[5] = DPH1 assay (integr. vs. (integr. + k.o.)), TF eff. = 67*%
[6] = DPH1 assay (integr. vs. k.o.), 10,000 seeded cells
[7] = DPH1 assay (integr. vs. k.o.), 20,000 seeded cells
[8] = DPH1 assay (integr. vs. k.o.), 40,000 seeded cells
[9] = MCF7, 10,000 seeded cells, listed as CRISPR Cas9 Dph1 gRNA
[10] = MCF7, 40,000 seeded cells, listed as CRISPR Cas9 Dph1 gRNA

Row | Substance | # of PM resistant colonies (40,000 seeded cells) (unheaded second sub-column: mean) (DPH1 gene [1]; [4]) | # of PM resistant colonies (40,000 seeded cells) (unheaded second sub-column: mean) (DPH1 gene [1]; [5]) | # of PM resistant colonies (mean of the samples) (DPH1 gene [1]; [6]) | # of PM resistant colonies (mean of the samples) (DPH1 gene [1]; [7]) | # of PM resistant colonies (mean of the samples) (DPH1 gene [1]; [8]) | # of PM resistant colonies (DPH1 gene [1]; MCF7, 10,000 seeded cells) | # of PM resistant colonies (DPH1 gene [1]; MCF7, 20,000 seeded cells) | # of PM resistant colonies (DPH1 gene [1]; MCF7, 40,000 seeded cells) | # of PM resistant colonies (80,000 seeded cells) (DPH1 gene [1]) | # of DT resistant colonies (mean of the samples) (DPH1 gene [2]; [6]) | # of DT resistant colonies (mean of the samples) (DPH1 gene [2]; [8]) | # of DT resistant colonies (DPH1 gene [2]; MCF7, 40,000 seeded cells) | # of DT resistant colonies (40,000 seeded cells) (DPH1 gene [2]) | # of DT + PM resistant colonies (40,000 seeded cells) (DPH1 gene [3]) | # of DT + PM resistant colonies (40,000 seeded cells) (unheaded second sub-column: mean) (DPH1 gene [3]) | # of PM + DT resistant colonies (40,000 seeded cells) (DPH1 gene [3]) | # of PM + DT resistant colonies (40,000 seeded cells) (unheaded second sub-column: mean) (DPH1 gene [3]) | # of DT + PM resistant colonies (80,000 seeded cells) (DPH1 gene [3]) | other results
1 | 20 mer SpCas9 scRNA: Scrambled control gRNA GCACTACCAGAGCTAACTCA (SEQ ID NO: 03) with SpCas9 and donor plasmid [reference compound] | 8 | 11 | 3 | 9 | 12 | 3 (2×) and 2 and 4 | 11 and 7 and 10 and 9 | 17 and 13 and 9 and 10 | 4 and 3 and 5 | 0 | 0 | 0 | 0 | 0 | 0 | 0 | 0 | 0 | # of PM resistant colonies (40,000 seeded cells) (DPH1 gene [1]; DPH1 (gRNA length), TF eff. = 31%, listed as 20 mer scRNA): 7 and 6 and 9 and 10; # of PM resistant colonies (40,000 seeded cells) (DPH1 gene [1]; DPH1 assay (integr. vs. (integr. + k.o.)), TF eff. = 67*%, listed as 20 mer scRNA): 10 (2×) and 9 and 16; # of PM resistant colonies (40,000 seeded cells) (DPH1 gene [1]; DPH1 assay (integr. vs. (integr. + k.o.)), TF eff. = 67*%, listed as SCRNA): 16; # of PM resistant colonies (40,000 seeded cells) (DPH1 gene [1]; DPH1 assay (integr. vs. (integr. + k.o.)), TF eff. = 67*%, listed as scRNA): 10 (2×) and 9; # of PM resistant colonies (DPH1 gene [1]; MCF7, 10,000 seeded cells, listed as CRISPR Cas9 SCRNA): 3 (2×) and 2 and 4; # of PM resistant colonies (DPH1 gene [1]; MCF7, 20,000 seeded cells, listed as CRISPR Cas9 SCRNA): 11 and 10 and 9; # of PM resistant colonies (DPH1 gene [1]; MCF7, 20,000 seeded cells, listed as CRISPR Cas9 scRNA): 7; # of PM resistant colonies (DPH1 gene [1]; MCF7, 40,000 seeded cells, listed as CRISPR Cas9 SCRNA): 17 and 9 and 10; # of PM resistant colonies (DPH1 gene [1]; MCF7, 40,000 seeded cells, listed as CRISPR Cas9 scRNA): 13; fold less PMr colonies than with DPH1-specific gRNA (DPH1 gene [1]; otherwise identical conditions): 2 fold; # of DT resistant colonies (DPH1 gene [2]; MCF7, 10,000 seeded cells): 0
2 | 20 mer SpCas9 DPH1 gRNA: Plasmids encoding SpCas9 and Dph1 gRNA (target CAGGGCGGCCGAGACGGCCC, SEQ ID NO: 01) plus PAC donor plasmid, OriGene | 15 | 24 | 9 | 13 | 24 | 7 and 10 (2×) and 29 | 18 and 13 (2×) and 6 | 29 and 12 and 30 and 24 | 14 and 11 and 9 and 10 | 218 | 947 | 995 and 942 and 899 and 950 | 476 and 492 and 468 and 472 | 6 and 5 and 7 (2×) | 6 | 15 and 13 and 11 and 12 | 13 | 5 and 4 and 3 | # of PM resistant colonies (40,000 seeded cells) (DPH1 gene [1]; [4]): 16 (2×) and 20 and 8; # of PM resistant colonies (40,000 seeded cells) (DPH1 gene [1]; DPH1 (gRNA length), TF eff. = 31%, listed as 20 mer Dph1 CRISPR Cas9 gRNA): 16 (2×) and 20 and 8; # of PM resistant colonies (40,000 seeded cells) (DPH1 gene [1]; [5]): 25 (2×) and 22 and 24; # of PM resistant colonies (40,000 seeded cells) (DPH1 gene [1]; DPH1 assay (integr. vs. (integr. + k.o.)), TF eff. = 67*%, listed as Dph1 CRISPR Cas9 gRNA): 25 (2×) and 22 and 24; # of PM resistant colonies (DPH1 gene [1]; [9]): 7 and 10 (2×); # of PM resistant colonies (DPH1 gene [1]; MCF7, 20,000 seeded cells, listed as CRISPR Cas9 Dph1 gRNA): 18 and 13 (2×) and 6; # of PM resistant colonies (DPH1 gene [1]; [10]): 29 and 12 and 30 and 24; integration efficacy in dependence on gRNA length (DPH1 gene [1]; PMr colonies): Targeted integration clearly above background was observed; # of DT resistant colonies (DPH1 gene [2]; [9]): 201 and 224 and 219; # of DT resistant colonies (DPH1 gene [2]; [10]): 995 and 942 and 899 and 950; # of DT + PM resistant colonies (40,000 seeded cells) (DPH1 gene [3]; listed as 20 mer Dph1 CRISPR Cas9 gRNA): 6 and 5 and 7 (2×); # of PM + DT resistant colonies (40,000 seeded cells) (DPH1 gene [3]; listed as Dph1 CRISPR Cas9 gRNA): 15 and 13 and 11 and 12

From US20250250559A1, “METHOD TO ANALYZE AND OPTIMIZE GENE EDITING MODULES AND DELIVERY APPROACHES” (Hoffmann-La Roche Inc., priority 2016, published 2025)
